Measured values from paper PMC11642981, “Bioguided Identification of Polymethoxyflavones as Novel Vascular CaV1.2 Channel Blockers from Citrus Peel” (Molecules, 2024).
Where two headings read alike, the source gives them in different places.

Columns and labels:
Assay type in all cases: cell-based
[1] = target: T1, CaV1.2 channel (α1C subunit) (Rattus norvegicus, UniProt P22002); assay: whole-cell patch-clamp, Ba2+ current (IBa1.[…])
T1 construct: gene Cacna1c; native channel in freshly isolated rat tail artery myocytes

[2] = target: T1, CaV1.2 channel (α1C subunit); assay: whole-cell patch-clamp, Ba2+ current (IBa1.[…]); conditions: read-out: % reduction in current amplitude at 100 μM
[3] = target: T1, CaV1.2 channel (α1C subunit); assay: whole-cell patch-clamp, complete block of IBa1.[…] at […]

T1 sequence (P22002 whole entry): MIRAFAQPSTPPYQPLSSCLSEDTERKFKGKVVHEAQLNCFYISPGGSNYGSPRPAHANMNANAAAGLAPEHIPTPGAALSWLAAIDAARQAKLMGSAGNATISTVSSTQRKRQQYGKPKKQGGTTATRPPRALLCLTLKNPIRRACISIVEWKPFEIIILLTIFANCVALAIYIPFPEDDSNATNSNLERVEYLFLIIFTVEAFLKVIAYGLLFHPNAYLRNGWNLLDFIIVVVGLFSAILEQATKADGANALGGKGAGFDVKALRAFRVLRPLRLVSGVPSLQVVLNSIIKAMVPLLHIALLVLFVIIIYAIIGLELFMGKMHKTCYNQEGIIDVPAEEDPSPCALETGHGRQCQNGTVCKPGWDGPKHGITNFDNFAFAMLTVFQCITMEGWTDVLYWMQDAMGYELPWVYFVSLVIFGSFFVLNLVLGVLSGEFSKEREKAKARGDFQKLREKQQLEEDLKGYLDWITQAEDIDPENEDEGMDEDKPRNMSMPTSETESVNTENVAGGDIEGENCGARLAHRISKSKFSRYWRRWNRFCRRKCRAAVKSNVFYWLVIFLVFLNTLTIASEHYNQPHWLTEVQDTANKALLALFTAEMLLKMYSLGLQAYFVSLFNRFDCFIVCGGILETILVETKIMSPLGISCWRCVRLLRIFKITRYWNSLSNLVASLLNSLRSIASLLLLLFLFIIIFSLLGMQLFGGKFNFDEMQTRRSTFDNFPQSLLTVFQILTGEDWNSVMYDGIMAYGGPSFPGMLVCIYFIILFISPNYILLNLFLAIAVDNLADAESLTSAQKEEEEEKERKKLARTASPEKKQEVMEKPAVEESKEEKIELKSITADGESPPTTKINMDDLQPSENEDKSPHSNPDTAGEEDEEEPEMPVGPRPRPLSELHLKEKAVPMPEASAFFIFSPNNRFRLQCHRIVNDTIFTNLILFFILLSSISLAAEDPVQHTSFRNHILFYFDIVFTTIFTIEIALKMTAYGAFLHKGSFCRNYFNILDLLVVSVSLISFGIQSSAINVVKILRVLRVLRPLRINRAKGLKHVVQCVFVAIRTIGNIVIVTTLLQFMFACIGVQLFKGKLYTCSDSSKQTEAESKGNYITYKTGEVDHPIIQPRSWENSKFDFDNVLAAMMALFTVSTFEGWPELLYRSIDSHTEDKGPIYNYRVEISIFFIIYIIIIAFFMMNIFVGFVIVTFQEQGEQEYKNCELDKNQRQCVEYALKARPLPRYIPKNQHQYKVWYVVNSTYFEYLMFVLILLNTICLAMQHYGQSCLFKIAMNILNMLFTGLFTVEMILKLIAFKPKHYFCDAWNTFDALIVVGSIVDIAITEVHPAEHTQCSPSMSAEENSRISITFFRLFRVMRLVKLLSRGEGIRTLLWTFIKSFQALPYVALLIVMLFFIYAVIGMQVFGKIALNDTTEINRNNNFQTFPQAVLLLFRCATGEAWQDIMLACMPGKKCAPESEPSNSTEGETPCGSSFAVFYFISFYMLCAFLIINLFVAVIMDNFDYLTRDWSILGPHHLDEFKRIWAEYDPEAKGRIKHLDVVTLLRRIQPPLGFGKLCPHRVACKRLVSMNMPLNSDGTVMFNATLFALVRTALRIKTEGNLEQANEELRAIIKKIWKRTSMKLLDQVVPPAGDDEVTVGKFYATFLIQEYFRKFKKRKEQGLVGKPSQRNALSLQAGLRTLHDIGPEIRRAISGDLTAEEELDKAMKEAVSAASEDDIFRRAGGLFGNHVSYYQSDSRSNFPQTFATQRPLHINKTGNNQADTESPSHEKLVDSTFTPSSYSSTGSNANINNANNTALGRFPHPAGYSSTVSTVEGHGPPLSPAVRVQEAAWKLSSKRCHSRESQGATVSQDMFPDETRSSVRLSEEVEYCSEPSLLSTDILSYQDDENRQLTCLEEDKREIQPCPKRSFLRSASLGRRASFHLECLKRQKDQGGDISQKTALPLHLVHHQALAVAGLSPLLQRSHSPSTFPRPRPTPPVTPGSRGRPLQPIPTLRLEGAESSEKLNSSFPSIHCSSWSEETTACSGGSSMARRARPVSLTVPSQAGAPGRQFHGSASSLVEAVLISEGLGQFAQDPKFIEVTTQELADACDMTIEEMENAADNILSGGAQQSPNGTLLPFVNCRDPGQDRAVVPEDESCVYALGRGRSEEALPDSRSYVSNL

COc1ccc(-c2cc(=O)c3c(OC)c(OC)c(OC)c(OC)c3o2)cc1 [tangeretin] was tested, and the IC50 ([1]; read-out: IC50 (converted)) was roughly 66.1 µM.

In the case of COc1ccc(-c2cc(=O)c3c(OC)c(OC)c(OC)cc3o2)cc1OC [sinensetin], the inhibition at 100 µM [2] is reported as 50%.

COc1ccc(-c2cc(=O)c3c(OC)c(OC)c(OC)cc3o2)cc1 [scutellarein tetramethyl ether] gave an IC50 [1] of roughly 33.1 µM.

For COC(=O)C1=C(C)NC(C)=C(C(=O)OC)C1c1ccccc1[N+](=O)[O-] [nifedipine], the “whole-cell patch-clamp, complete block of IBa1.2 at 10 μM” value [3] was 10 µM (completely blocked IBa1.2).

For COc1ccc(-c2cc(=O)c3c(OC)c(OC)c(OC)c(OC)c3o2)cc1OC [nobiletin], the inhibition at 100 µM [2] was 50%.
